Measurements taken from US5635477A, “Cyclic compounds useful as inhibitors of platelet glycoprotein IIB/IIIA” (The DuPont Merck Pharmaceutical Company, priority 1995, dated 1997).
Entries after “also recorded” stand apart in the source; their conditions may differ. Read-outs that look alike come from different tables or passages of the source. Non-standard residues stand in square brackets, D forms with d. Residues, ends and D or L forms follow the SMILES beside them. NMeR = CN[C@@H](CCCNC(=N)N)C(=O)O; 3Amb = NCc1cccc(C(=O)O)c1; dAbu = CC[C@@H](N)C(=O)O; βAla = NCCC(=O)O

Experiments:
[1] = test system: platelet granular secretion; conditions: cited from earlier work
[2] = biological target: agonist-induced platelet aggregation (Homo sapiens, UniProt P05106+P08514); assay: Platelet Aggregation Assay; assay type: cell-based; conditions: human PRP; for IC50: agonist-induced aggregation
agonist-induced platelet aggregation, sequence (P08514 32-1039): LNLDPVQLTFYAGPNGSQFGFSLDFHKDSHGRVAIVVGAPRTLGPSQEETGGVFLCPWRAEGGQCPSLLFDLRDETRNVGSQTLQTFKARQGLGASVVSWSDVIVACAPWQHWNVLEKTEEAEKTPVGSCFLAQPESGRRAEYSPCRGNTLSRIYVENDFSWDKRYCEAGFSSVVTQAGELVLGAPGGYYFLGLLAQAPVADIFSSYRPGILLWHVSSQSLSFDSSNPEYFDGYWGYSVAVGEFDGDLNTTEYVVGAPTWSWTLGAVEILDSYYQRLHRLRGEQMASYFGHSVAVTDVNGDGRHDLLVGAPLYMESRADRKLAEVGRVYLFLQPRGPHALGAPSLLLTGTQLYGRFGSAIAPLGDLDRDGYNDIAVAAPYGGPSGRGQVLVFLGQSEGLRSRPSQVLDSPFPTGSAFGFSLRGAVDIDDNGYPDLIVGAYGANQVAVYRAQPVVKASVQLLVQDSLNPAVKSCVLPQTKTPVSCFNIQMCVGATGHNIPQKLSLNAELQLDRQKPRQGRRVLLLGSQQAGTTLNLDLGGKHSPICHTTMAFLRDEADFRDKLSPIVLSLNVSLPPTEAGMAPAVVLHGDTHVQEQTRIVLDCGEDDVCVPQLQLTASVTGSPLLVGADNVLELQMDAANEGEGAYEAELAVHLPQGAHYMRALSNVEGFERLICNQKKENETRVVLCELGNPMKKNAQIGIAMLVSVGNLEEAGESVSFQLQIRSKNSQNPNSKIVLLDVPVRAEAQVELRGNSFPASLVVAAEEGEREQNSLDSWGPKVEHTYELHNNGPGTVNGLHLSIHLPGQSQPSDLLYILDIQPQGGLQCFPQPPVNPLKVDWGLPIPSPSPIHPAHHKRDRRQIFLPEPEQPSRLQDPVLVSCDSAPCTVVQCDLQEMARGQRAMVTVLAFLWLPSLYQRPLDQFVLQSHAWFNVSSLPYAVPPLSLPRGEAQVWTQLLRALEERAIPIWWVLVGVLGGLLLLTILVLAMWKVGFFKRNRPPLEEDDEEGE
agonist-induced platelet aggregation, sequence (P05106 27-788): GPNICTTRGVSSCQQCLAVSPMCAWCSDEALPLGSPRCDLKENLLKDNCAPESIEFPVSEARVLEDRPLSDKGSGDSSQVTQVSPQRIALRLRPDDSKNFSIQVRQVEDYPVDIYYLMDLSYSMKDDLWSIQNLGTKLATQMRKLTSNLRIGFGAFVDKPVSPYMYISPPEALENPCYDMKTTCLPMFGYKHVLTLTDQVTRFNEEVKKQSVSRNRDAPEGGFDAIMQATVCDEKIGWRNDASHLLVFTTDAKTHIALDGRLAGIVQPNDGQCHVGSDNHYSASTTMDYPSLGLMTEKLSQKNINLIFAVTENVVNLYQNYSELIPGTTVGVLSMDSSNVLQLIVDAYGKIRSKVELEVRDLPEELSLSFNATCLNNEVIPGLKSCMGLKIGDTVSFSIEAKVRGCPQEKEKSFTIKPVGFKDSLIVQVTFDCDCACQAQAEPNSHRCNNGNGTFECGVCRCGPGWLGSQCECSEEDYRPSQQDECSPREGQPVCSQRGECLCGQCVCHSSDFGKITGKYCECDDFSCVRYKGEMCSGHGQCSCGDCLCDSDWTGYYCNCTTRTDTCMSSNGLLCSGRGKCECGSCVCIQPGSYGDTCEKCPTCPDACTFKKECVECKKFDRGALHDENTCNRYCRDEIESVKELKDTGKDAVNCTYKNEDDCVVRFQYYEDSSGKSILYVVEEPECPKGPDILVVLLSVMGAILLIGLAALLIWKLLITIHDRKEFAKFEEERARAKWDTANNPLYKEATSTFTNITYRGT
Procedure: Blood was collected into 10 ml citrated Vacutainer tubes.

[3] = test system: already formed platelet-rich clot; conditions: for lytic effect on already formed platelet-rich clot: varying concentrations
Procedure: Thrombolytic Assay: Venous blood was obtained from the arm of a healthy human donor who was drug-free and aspirin free for at least two weeks prior to blood collection, and placed into 10 ml citrated Vacutainer tubes. The blood was centrifuged for 15 minutes at 1500 ×g at room temperature, and platelet rich plasma (PRP) was removed. To the PRP was then added 1×10^- 3M of the agonist ADP, epinephrine, collagen, arachidonate, serotonin or thrombin, or a mixture thereof, and the PRP incubated for 30 minutes. The PRP was centrifuged for 12 minutes at 2500×g at room temperature. The supernatant was then poured off, and the platelets remaining in the test tube were resuspended in platelet poor plasma (PPP), which served as a plasminogen source. The suspension was then assayed on a Coulter Counter (Coulter Electronics, Inc., Hialeah, Fla.), to determine the platelet count at the zero time point. After obtaining the zero time point, test compounds were added at various concentrations. Test samples were taken at various time points and the platelets were counted using the Coulter Counter. To determine the percent of lysis, the platelet count at a time point subsequent to the addition of the test compound was subtracted from the platelet count at the zero time point, and the resulting number divided by the platelet count at the zero time point. […] For the IC50 evaluation, the test compounds were added at various concentrations, and the percentage of lysis caused by the test compounds was calculated.
Compounds A and B were also tested at varying concentrations using the thrombolytic assay described above (FIG. Ib). […] The clot was formed by incubating platelets with a mixture of agonists (TEAC mixture), which consists of thrombin (0.01 U/ml), epinephrine (250 uM), ADP (250 uM), and collagen (10 ug.ml), for 30 minutes. As a comparison, a linear peptide of sequence arginine-glycine-aspartic acid-serine (RGDS) was also tested in the thrombolytic assay.

[4] = test system: femoral artery reocclusion; assay: femoral artery reocclusion post-thrombolysis; assay type: in vivo, canine (male or female mongrel dogs)
Procedure: Effects of Compound A vs saline, when given to anesthetized canine (male or female mongrel dogs) at 1.0 mg/kg I.V., on the incidence of femoral artery reocclusion post-thrombolysis with streptokinase (250-300×1000 IU/kg) or t-PA. […] Data represents mean ±SEM, n=6 in each group.

[5] = test system: thrombus in the femoral artery; assay: in vivo thrombolysis, modified Lucchesi model; conditions: listed as Compound A
Description: Data represent mean±SEM. n=3-6 in each group.

[6] = test system: activated human platelets; assay: binding of 3H-labeled Compound A to activated human platelets; conditions: Scatchard analysis
Description: (§1) This effect may explain the lyric efficacy of the compounds of the present invention.

[7] = biological target: T1, platelet GPIIb/IIIa receptor (Homo sapiens, UniProt P05106+P08514); assay: Platelet-Fibrinogen Binding Assay (125I-fibrinogen, h-GPP); conditions: fibrinogen bound 20 minutes before compound
T1 construct: Human PRP (h-PRP) was applied to a Sepharose column for the purification of platelet fractions; endogenous in cells; host or cells: human gel-purified platelets (h-GPP) from donor platelet-rich plasma
T1 sequence (P08514 32-887 limits assumed): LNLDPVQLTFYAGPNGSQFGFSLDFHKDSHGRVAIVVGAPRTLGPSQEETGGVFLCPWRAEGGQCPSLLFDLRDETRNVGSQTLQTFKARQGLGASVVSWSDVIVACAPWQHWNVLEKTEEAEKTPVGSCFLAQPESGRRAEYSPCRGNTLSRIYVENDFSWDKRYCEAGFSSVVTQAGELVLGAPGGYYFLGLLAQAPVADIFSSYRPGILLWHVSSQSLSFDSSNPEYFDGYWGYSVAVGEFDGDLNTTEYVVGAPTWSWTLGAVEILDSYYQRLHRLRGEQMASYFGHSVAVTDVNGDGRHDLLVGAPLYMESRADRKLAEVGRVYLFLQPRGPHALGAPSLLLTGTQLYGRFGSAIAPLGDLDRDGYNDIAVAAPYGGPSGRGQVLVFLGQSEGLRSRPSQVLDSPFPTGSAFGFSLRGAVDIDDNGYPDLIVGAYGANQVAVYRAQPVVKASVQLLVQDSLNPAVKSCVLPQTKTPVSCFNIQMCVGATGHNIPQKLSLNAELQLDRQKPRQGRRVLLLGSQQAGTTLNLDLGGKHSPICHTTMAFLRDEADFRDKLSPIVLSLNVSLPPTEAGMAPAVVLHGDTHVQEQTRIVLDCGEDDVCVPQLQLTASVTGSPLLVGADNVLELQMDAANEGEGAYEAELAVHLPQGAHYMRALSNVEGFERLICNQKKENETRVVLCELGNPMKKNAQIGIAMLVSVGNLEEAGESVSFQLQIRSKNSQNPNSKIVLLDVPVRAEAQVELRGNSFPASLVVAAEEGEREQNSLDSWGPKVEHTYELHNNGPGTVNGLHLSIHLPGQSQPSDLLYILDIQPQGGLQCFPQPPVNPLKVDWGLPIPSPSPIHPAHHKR
T1 sequence (P08514 891-1039 partner limits assumed): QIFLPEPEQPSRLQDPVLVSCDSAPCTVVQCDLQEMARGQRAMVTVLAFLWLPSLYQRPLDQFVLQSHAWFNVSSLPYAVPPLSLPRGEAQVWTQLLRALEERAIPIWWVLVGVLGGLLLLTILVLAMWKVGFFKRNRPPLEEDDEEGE
T1 sequence (P05106 27-788): as the sequence (P05106 27-788) above
Procedure: Platelet-Fibrinogen Binding Assay: Binding of ^125 I-fibrinogen to platelets was performed as described by Bennett et al. (1983) Proc. Natl. Acad. Sci. USA 80: 2417-2422, with some modifications as described below. Human PRP (h-PRP) was applied to a Sepharose column for the purification of platelet fractions. Aliquots of platelets (5×10^8 cells) along with 1 mM calcium chloride were added to removable 96 well plates prior to the activation of the human gel purified platelets (h-GPP). Activation of the human gel purified platelets was achieved using ADP, collagen, arachidonate, epinephrine, and/or thrombin in the presence of the ligand, ^125 I-fibrinogen. The ^125 I-fibrinogen bound to the activated, platelets was separated from the free form by centrifugation and then counted on a gamma counter.

[8] = biological target: T2, purified GPIIb/IIIa receptors obtained from human platelets (Homo sapiens, UniProt P05106+P08514); assay: purified GPIIb/IIIa-biotinylated fibrinogen ELISA; assay type: binding; conditions: competitive; Michaelis-Menten analysis
T2 construct: purified GPIIb/IIIa receptors obtained from human platelets; from tissue; host or cells: human platelets
T2 sequence (P08514 32-887 limits assumed): as the sequence (P08514 32-887 limits assumed) above
T2 sequence (P08514 891-1039 partner limits assumed): as the sequence (P08514 891-1039 partner limits assumed) above
T2 sequence (P05106 27-788): as the sequence (P05106 27-788) above
Description: as §1

CC(=O)Oc1ccccc1C(=O)O [aspirin, acetylsalicyclic acid, reference compound]
effect on platelet granular secretion (PAI-1, serotonin) [1]: inhibit platelet granular secretion

CC(C)[C@H]1NC(=O)c2cccc(c2)CNC(=O)[C@H](CC(=O)O)NC(=O)CNC(=O)[C@H](CCCNC(=N)N)N(C)C1=O [Example 4, cyclo-(D-Val-NMeArg-Gly-Asp-Mamb)]
IC50 [2]: < 1 µM
IC50 [3]: 0.5 to 1 µM
thrombolytic effect in combination with tPA, urokinase or streptokinase ([3]; in vitro, pre-formed platelet-rich clot): significantly better than the additive effects of both agents
lytic effect on already formed platelet-rich clot ([3]; listed as B): significant lyric efficacy of pre-formed platelet rich-clot
lytic effect on already formed platelet-rich clot ([3]; listed as Compound B): significant lytic effect on the clot

CC[C@H]1NC(=O)c2cccc(c2)CNC(=O)[C@H](CC(=O)O)NC(=O)CNC(=O)[C@H](CCCNC(=N)N)N(C)C1=O [Example 3, cyclo-(D-Abu-NMeArg-Gly-Asp-Mamb)] (cyclo([NMeR]GD[3Amb][dAbu]))
period without reocclusion ([4]; 1.0 mg/kg I.V., post-thrombolysis): > 240 min
prevention of reocclusion ([4]; 1.0 mg/kg I.V., post-thrombolysis with streptokinase or t-PA): 100%
reocclusion following SK or t-PA thrombolysis ([4]; dog, in vivo): virtually no reocclusion
in vivo thrombolytic efficacy with streptokinase ([5]; 1 mg/kg I.V. plus sub-optimum streptokinase (75 KU)): significant synergistic effect in fully lysing the thrombus; also recorded: increase in in vivo thrombolytic efficacy while allowing a significantly lower dose of streptokinase
in vivo thrombolytic efficacy alone ([5]; 1 mg/kg I.V.): significant lysis of an already formed thrombus in the femoral artery; also recorded: good in vivo thrombolytic efficacy
deaggregation of platelets ([2]; added after initiation of aggregation): deaggregate platelets after the initiation of aggregation
IC50 [2]: < 1 µM
Kd [6]: 0.0001 µM
displacement of 125I-fibrinogen bound to activated platelets [7]: displace ^125 I-fibrinogen bound to activated platelets
lysis percentage ([3]; 0.001 mM, platelet stimulation 1x10^-3 M ADP): ≥ 70%
lytic effect on already formed platelet-rich clot ([3]; listed as A): significant lyric efficacy of pre-formed platelet rich-clot
lytic effect on already formed platelet-rich clot ([3]; listed as Compound A): significant lytic effect on the clot

CC[C@H]1NC(=O)c2cccc(c2)CNC(=O)[C@H](CC(=O)O)NC(=O)CNC(=O)[C@H](CCCN=C(N)N)N(C)C1=O [Example 3, cyclo-(D-Abu-NMeArg-Gly-Asp-Mamb)] (cyclo([NMeR]GD[3Amb][dAbu]))
Ki [8]: 0.0004 µM

hirudin
effect on platelet granular secretion (PAI-1, serotonin) [1]: inhibit platelet granular secretion

CN1C(=O)CCNC(=O)c2cccc(c2)CNC(=O)[C@H](CC(=O)O)NC(=O)CNC(=O)[C@@H]1CCCNC(=N)N [Example 28c, cyclo-(b-Ala-NMeArg-Gly-Asp-Mamb)] (cyclo([NMeR]GD[3Amb][βAla]))
IC50 [2]: < 1 µM

CC(C)[C@H]1NC(=O)c2cccc(c2)CNC(=O)[C@H](CC(=O)O)N(C)C(=O)CNC(=O)[C@H](CCCNC(=N)N)N(C)C1=O [Example 64b, cyclo-(D-Val-NMeArg-Gly-NMeAsp-Mamb)]
IC50 [2]: 1 to 10 µM

CC(C)[C@H]1NC(=O)c2cc(ccc2Cl)CNC(=O)[C@H](CC(=O)O)NC(=O)CNC(=O)[C@H](CCCNC(=N)N)N(C)C1=O [Example 97, cyclo-(D-Val-NMeArg-Gly-Asp-3-aminomethyl-6-chlorobenzoic acid)]
IC50 [2]: < 1 µM
